# Source: US20030086987A1, “Salvianolic acid B” (priority 2001, published 2003)
# Columns and labels:
# [1] = test system: New Zealand White rabbits; assay: Intima/media area ratio in cholesterol-fed rabbits after femoral artery denudation; format: in vivo; conditions: 2% cholesterol diet, six weeks, probucol 1.5 g/day, salvianolic acid B 375 mg/day; for ratio of the intima area to the media area, thoracic aorta section: CT group 0.1; for ratio of the intima area to the media area, aortic arch section: CT group 0.22; for ratio of the intima area to the media area, abdominal aorta section: CT group 0.58
# Protocol: New Zealand White rabbits were randomly divided into three groups. […] Another group was fed with the control diet containing 1.5 g/day probucol (P group), and the third group was fed with the control diet containing 375 mg/day salvianolic acid B (Sal B group). After being fed for three weeks, all rabbits underwent a femoral artery denudation. After the operation, the diet fed to each group was maintained for anther three weeks. […] Thin sections (5 μm thick) were stained with Mayer's hematoxylin-eosin solution. […] See, e.g., Gordon et al. (1992) Proc […] USA 89: 11312-11316. In the CT group, the ratio of the intima area to the media area of the aortic arch section was 0.22 (±0.04).
# [2] = test system: Human aortic smooth muscle cells (HASMCs); assay: Rescue of oxLDL induced cell death, MTT assay; format: cell-based; conditions: then 40 μg/mL oxLDL for 24 hr, oxLDL alone 23.5%
# Protocol: Human aortic smooth muscle cells (HASMCs, Cascade Biologics, Inc. Portland, Oreg.) were cultured in Medium 231 (Cascade Biologics, Inc.), supplemented with 5% smooth muscle growth serum (SMGS), 100 untis/mL penicillin, 100 μg/mL streptomycin, 1.25 μ/mL Fungizone (amphotericin B) at 37° C. in 5% CO2 saturated humidity atmosphere. The medium was changed every 4 days, and cells were detached by treatment with 0.05% trypsin, 0.02% EDTA solutions. […] Before each experiment, the medium was removed, and cells were washed and then cultured in serum-free medium containing the supplements indicated above but without SMGS. […] Then, 40 μg/mL oxLDL was added to the incubated medium for another 24 hr. The cytotoxic effect can be determined using the 3-(4,5-dimethylthiazol-2-yl)-2,5-diphenyltetrazolium bromide (MTT) assay method described in Boyd (In Principle of Practice of Oncology, […]., and Rosenberg, S. A. (Eds) Vol. 3, PPO Update, No. 10, 1989).
# [3] = test system: apoE (−) mice; assay: Atherosclerotic area in the apoE (−) mice; format: in vivo; conditions: 0.15% cholesterol diet with 0.25% salvianolic acid B or 2% SAGE, 113 days
# Protocol: 25-week apoE (−) mice from Jackson Laboratory were randomly divided into three groups. Animals in the control group (CT group) were fed with a diet containing 0.15% cholesterol (w/w) (a control diet). Second group (SB group) was fed with the control diet containing 0.25% salvianolic acid B (w/w); and third group (SAGE group) was fed with the control diet containing 2% SAGE (w/w). The feeding period was 113 days. SAGE was prepared as follows:
# Salvia miltiorrhiza extract was obtained from extracts of the sliced and ground roots of Salvia miltiorrhiza by using an aqueous ethanol solution (water: ethanol =4:1, v/v). The weight to volume ration of Salvia miltiorrhiza to extraction solvent was 1:10 (w/v).
# Angelica sinensis extract was obtained from ethanolic extracts (1:10, w/v).
# Glycyrrhizae radix (Glycyrrhiza uralensis) extract was obtained from ethanolic extracts (1:10, w/v).
# The weight ratio of Salvia miltiorrhiza extract, Angelica sinensis extract, and Glycyrrhiza uralensis extract was 2:1:1, respectively, based on the dried weights of the raw herbs used.
# [4] = test system: IL-1β; assay: Inhibition of oxLDL induced IL-1β production in HASMCs, sandwich ELISA; format: cell-based, Human; conditions: 1, 2.5 and 10 μg/mL for 24 hr, then 20 μg/mL oxLDL for 24 hr
# Protocol: (§1) Human aortic smooth muscle cells (HASMCs, Cascade Biologics, Inc. Portland, Oreg.) were cultured in Medium 231 (Cascade Biologics, Inc.), supplemented with 5% smooth muscle growth serum (SMGS), 100 untis/mL penicillin, 100 μg/mL streptomycin, 1.25 μ/mL Fungizone (amphotericin B) at 37° C. in 5% CO2 saturated humidity atmosphere. The medium was changed every 4 days, and cells were detached by treatment with 0.05% trypsin, 0.02% EDTA solutions. […] Before each experiment, the medium was removed, and cells were washed and then cultured in serum-free medium containing the supplements indicated above but without SMGS. […] IL-1 production was determined with a sandwich ELISA using anti-IL-1 antibodies (e.g., IL-1β and IL-1ra ELISA kits from R&D Systems and Endogen, Inc. respectively).
# [5] = test system: caspase-3; assay: Inhibition of oxLDL induced caspase-3 activation, Western blot in HASMCs; format: cell-based, Human; conditions: 1 or 10 μg/mL for 24 hr, then 20 μg/mL oxLDL for 24 hr
# Protocol: Human aortic smooth muscle cells (HASMCs, Cascade Biologics, Inc. Portland, Oreg.) were cultured in Medium 231 (Cascade Biologics, Inc.), supplemented with 5% smooth muscle growth serum (SMGS), 100 untis/mL penicillin, 100 μg/mL streptomycin, 1.25 μ/mL Fungizone (amphotericin B) at 37° C. in 5% CO2 saturated humidity atmosphere. The medium was changed every 4 days, and cells were detached by treatment with 0.05% trypsin, 0.02% EDTA solutions. […] Before each experiment, the medium was removed, and cells were washed and then cultured in serum-free medium containing the supplements indicated above but without SMGS. […] The sample solution was heated at 100° C. for 5 min, cooled down to room temperature, and subjected to 12% SDS-polyacrylamide gel electrophoresis. Then, proteins were transferred to PVDF membranes, blocked with 5% nonfat milk in Tris-buffered saline-Tween 20 (0.1%) at room temperature for 2 hr, and incubated overnight at 4° C. with […] anti-caspase-3 antibody (dilution 1:1000). The membranes were washed three times in Tris-buffered saline-Tween 20, and antibody reactions were detected using horseradish peroxidase-conjugated goat anti-rabbit IgG (0.2 μg/mL) and LumiGLO chemiluminescent detection reagents (Bradford (1976) Analytical Biochem 72: 248-254). Activated caspase-3 (17 kD) was detected in HASMCs after oxLDL treatment.
# [6] = test system: IL-1ra; assay: Inhibition of oxLDL induced IL-1ra production in HASMCs, sandwich ELISA; format: cell-based, Human; conditions: 1, 2.5 and 10 μg/mL for 24 hr, then 20 μg/mL oxLDL for 24 hr
# Protocol: as §1
Structure (SMILES),"ratio of the intima area to the media area, thoracic aorta section [1]","ratio of the intima area to the media area, aortic arch section [1]","ratio of the intima area to the media area, abdominal aorta section [1]",cell viability of the HASMCs ([2]; 1 μg/mL for 24 hr),cell viability of the HASMCs ([2]; 1.25 μg/mL for 24 hr),cell viability of the HASMCs ([2]; 10 μg/mL for 24 hr),cell viability of the HASMCs ([2]; 20 μg/mL for 24 hr),Inhibition (%) of atherosclerosis compared with control group [3],Intima area ([3]; mean ± S.D.),Media area ([3]; mean ± S.D.),"Intima/Media (ratio) ([3]; mean ± S.D., CT 0.770)",oxLDL induced IL-1β production [4],activated caspase-3 (17 kD) after oxLDL treatment [5],oxLDL induced IL-1ra production [6]
"CC(C)(Sc1cc(C(C)(C)C)c(O)c(C(C)(C)C)c1)Sc1cc(C(C)(C)C)c(O)c(C(C)(C)C)c1 [probucol, reference compound]",about 0.03,about 0.1,about 0.33,–,–,–,–,–,–,–,–,–,–,–
O=C(/C=C/c1ccc(O)c2c1[C@H](C(=O)O[C@H](Cc1ccc(O)c(O)c1)C(=O)O)[C@@H](c1ccc(O)c(O)c1)O2)O[C@H](Cc1ccc(O)c(O)c1)C(=O)O [salvianolic acid B],about 0.02,about 0.07,about 0.26,68.3% (±5.3%),57.5% (±14.4%),57.6% (±18.7%),38.3% (±18.8%),83%,"1,563 ± 2,504 10^3 μm^2","9,763 ± 2,239 10^3 μm^2",0.128 ± 0.170,inhibit,no activated caspase-3 was observed,inhibit
